The results in this text go back to US12649750B2, “Macrocyclic compounds, compositions, and methods of using thereof” (Sionna Therapeutics Inc., priority 2022, dated 2026).

The target of one test is T1, CFTR (Homo sapiens, UniProt P13569, DEL508-508).
T1 construct: Primary human bronchial epithelial cells from a ΔF508 homozygous CF donor; host or cells: primary human bronchial epithelial cells (CF-HBE), ΔF508 homozygous donor
The experiment in a line: TECC24 AUC fold over DMSO @10 μM, CFTR-mediated transepithelial chloride transport in CF-HBE cells. In kind it is cell-based. The following applies: test agent AUC divided by DMSO vehicle AUC, primary CF-HBE cells, ΔF508 homozygous donor, 48 hours incubation. In a few lines:
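Primary ΔF508-homozygous CF bronchial epithelial cells on inserts were incubated 48 h at 36.5 °C with compound in IL-13-containing medium. VT and TEER were then recorded in current-clamp mode (pH 7.4 HEPES bath) with benzamil 10 μM, forskolin 10 μM, then CFTR inhibitor-172 20 μM. The IEQ AUC between forskolin and inhibitor was divided by vehicle AUC.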

A further test addresses T2, NBD1 (Homo sapiens, UniProt P13569).
T2 construct: Purified recombinant NBD1 was produced using previously described methods; made in house
The experiment in a line: Aggregation analysis using differential static light scattering (DSLS), thermal stability of NBD1 (ΔTagg). In kind it is binding. As to conditions: ΔTagg versus DMSO control, NBD1 0.2 mg/ml. The gist of the method:
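NBD1 0.2 mg/ml, S200 buffer (50 mM Tris-HCl, 150 mM NaCl, 5 mM MgCl2, 2 mM ATP, 2 mM DTT, pH7.6) + 1% glycerol; cpd in DMSO; oil overlay. Ramp 25→70° C. at 1° C./min, DSLS images every 0.5° C. ΔTagg = Tagg (inflection) − mean DMSO Tagg.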

T1 sequence (P13569 with tags, fused parts or gaps DEL508-508): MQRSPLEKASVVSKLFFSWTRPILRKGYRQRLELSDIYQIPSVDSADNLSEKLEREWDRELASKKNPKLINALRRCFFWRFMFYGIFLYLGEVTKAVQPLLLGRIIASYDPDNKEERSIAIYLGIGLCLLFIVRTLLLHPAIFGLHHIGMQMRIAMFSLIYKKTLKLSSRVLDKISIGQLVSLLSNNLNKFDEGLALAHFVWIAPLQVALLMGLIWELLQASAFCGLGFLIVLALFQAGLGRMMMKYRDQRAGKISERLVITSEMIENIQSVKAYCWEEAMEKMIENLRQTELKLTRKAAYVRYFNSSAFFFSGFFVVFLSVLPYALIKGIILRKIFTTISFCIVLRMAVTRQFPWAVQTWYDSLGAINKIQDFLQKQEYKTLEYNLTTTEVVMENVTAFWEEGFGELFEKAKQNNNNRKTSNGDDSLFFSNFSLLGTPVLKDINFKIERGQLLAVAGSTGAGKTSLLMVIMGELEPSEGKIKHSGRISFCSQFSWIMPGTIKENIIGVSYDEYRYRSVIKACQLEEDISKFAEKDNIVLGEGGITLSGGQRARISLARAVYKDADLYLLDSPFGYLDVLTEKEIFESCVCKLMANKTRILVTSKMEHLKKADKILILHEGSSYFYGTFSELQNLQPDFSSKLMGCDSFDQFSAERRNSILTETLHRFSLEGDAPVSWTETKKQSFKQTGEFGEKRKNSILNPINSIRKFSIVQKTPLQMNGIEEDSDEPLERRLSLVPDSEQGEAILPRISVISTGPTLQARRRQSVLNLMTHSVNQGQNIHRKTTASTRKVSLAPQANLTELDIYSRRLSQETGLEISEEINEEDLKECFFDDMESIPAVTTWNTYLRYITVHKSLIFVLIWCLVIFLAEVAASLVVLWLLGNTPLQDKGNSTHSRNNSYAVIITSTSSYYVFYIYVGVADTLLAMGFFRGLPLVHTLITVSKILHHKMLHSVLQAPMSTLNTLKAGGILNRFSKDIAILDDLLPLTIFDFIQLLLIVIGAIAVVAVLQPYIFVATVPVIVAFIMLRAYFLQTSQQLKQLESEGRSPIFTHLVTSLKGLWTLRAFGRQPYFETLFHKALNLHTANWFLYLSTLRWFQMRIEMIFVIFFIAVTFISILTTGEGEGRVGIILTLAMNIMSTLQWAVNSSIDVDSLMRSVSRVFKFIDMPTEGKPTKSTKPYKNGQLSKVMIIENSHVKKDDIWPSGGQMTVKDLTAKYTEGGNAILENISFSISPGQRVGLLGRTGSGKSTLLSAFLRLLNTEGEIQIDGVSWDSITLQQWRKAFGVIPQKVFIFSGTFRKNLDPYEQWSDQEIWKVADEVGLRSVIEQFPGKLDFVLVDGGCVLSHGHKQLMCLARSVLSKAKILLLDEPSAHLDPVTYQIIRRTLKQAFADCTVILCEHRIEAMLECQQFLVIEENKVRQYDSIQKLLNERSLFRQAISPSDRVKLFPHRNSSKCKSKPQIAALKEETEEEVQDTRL
T2 sequence (P13569 423-646 limits assumed): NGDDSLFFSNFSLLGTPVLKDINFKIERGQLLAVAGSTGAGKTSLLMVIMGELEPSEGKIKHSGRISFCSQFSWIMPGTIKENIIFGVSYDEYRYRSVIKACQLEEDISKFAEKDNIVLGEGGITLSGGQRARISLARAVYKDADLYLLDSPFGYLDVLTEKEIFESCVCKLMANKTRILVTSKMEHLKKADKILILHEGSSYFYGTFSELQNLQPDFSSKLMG

As to `CC(CC(=O)O)c1cccc(C2(C)CCOC(C)(C)CS(=O)(=O)CCc3c(c(F)cc4[nH]ccc34)Oc3ccc(F)c(c3)-c3nc2nn3C)c1` (single isomer, unassigned) [Compound 72A, 3-[3-(22,28-difluoro-3,6,10,10-tetramethyl-12,12-dioxo-9,24-dioxa-12lambda6-thia-3,4,19,30-tetrazapentacyclo-[23.3.1.12,5.015,23.016,20]triaconta-1(29),2(30),4,15,17,20,22,25,27-nonaen-6-yl)phenyl]-butanoic Acid], the “TECC (AUC, 10 μM)” value on CFTR is “A (a TECC value less than 12 is marked “A”)”. Besides, the “DSLS 3D (100 μM ΔT)” value at NBD1 was “C (a value greater than 10 °C and less than or equal to 25 °C is marked “C”)”.
`C[C@@H](Cc1cccc([C@@]2(C)CCCC(C)(C)CS(=O)(=O)CCc3c(c(F)cc4[nH]ccc34)[S+]([O-])c3cccc(c3)-c3nc2co3)c1)C(=O)O` (stereo partly drawn) [Compound 294, (2S)-3-[3-[(6R)-22-fluoro-6,10,10-trimethyl-12,12,24-trioxo-3-oxa-12λ6,24λ4-dithia-19,30-diazapentacyclo[23.3.1.12,5.015,23.016,20]triaconta-1(29),2(30),4,15,17,20,22,25,27-nonaen-6-yl]phenyl]-2-methyl-propanoic Acid]: the “TECC (AUC, 10 μM)” value on CFTR is reported as “A (a TECC value less than 12 is marked “A”)”. Besides, the “DSLS 3D (100 μM ΔT)” value on NBD1 was “C (a value greater than 10 °C and less than or equal to 25 °C is marked “C”)”.
For `C[C@@H](Cc1cccc([C@@]2(C)CCCC(C)(C)CS(=O)(=O)CCc3c(c(F)cc4[nH]ccc34)[S+]([O-])c3ccnc(c3)-c3nc2cs3)c1)C(=O)O` (single isomer, unassigned) [Compound 239B], the “TECC (AUC, 10 μM)” value at CFTR was “A (a TECC value less than 12 is marked “A”)”. Besides, the “DSLS 3D (100 μM ΔT)” value at NBD1 is “A (an ΔTagg value less than or equal to 5 °C is marked “A”)”.
For the molecule `C[C@@H](Cc1cccc(C2(C)CCCC(C)(C)CS(=O)(=O)CCc3c(c(F)cc4[nH]ccc34)S(=O)(=O)c3ccc(F)c(c3)-c3nc2nn3C)n1)C(=O)O` (single isomer, unassigned) [Compound 180A], on CFTR, the “TECC (AUC, 10 μM)” value is given as “B (a value between 12-20 is marked “B”)”. Moreover, the “DSLS 3D (100 μM ΔT)” value at NBD1 is “C (a value greater than 10 °C and less than or equal to 25 °C is marked “C”)”.
On to `C[C@@H](Cc1cccc([C@@]2(C)CCCC(C)(C)CS(=O)(=O)CCc3c(c(F)cc4[nH]ccc34)[S+]([O-])c3cccc(c3)-c3nc2nn3C)c1)C(=O)O` (single isomer, unassigned) [Compound 211A], for which, on CFTR, the “TECC (AUC, 10 μM)” value was “B (a value between 12-20 is marked “B”)”. In addition, on NBD1, the “DSLS 3D (100 μM ΔT)” value was “C (a value greater than 10 °C and less than or equal to 25 °C is marked “C”)”.
Consider `CC1(C)C[S+]([O-])Cc2c(c(F)cc3[nH]ccc23)Oc2ccc(F)c(c2)-c2nc(c[nH]2)C(C)(c2cccc(CCC(=O)O)c2)CCCO1` (stereo not drawn) [Compound 47, 3-[3-(22,28-Difluoro-6,11,11-trimethyl-13-oxo-10,24-dioxa-13M-thia-3,19,30-triazapentacyclo[23.3.1.12,5.015,23.016,20]triaconta-1(29),2,4,15,17,20,22,25,27-nonaen-6-yl)phenyl]propanoic Acid], for which the “TECC (AUC, 10 μM)” value at CFTR is listed as “B (a value between 12-20 is marked “B”)”. Besides, the “DSLS 3D (100 μM ΔT)” value on NBD1 is “C (a value greater than 10 °C and less than or equal to 25 °C is marked “C”)”.
As for `Cn1cc2nc1-c1cc(ccc1F)Oc1c(F)cc3[nH]ccc3c1CCS(=O)(=O)CC(C)(C)CCCC2(C)c1cccc(CC(=O)O)c1` (stereo not drawn) [Compound 61, 2-[3-(22,28-Difluoro-3,6,10,10-tetramethyl-12,12-dioxo-24-oxa-12lambda6-thia-3,19,30-triazapentacyclo[23.3.1.12,5.015,23.016,20]triaconta-1(29),2(30),4,15,17,20,22,25,27-nonaen-6-yl)phenyl]acetic Acid], on CFTR, the “TECC (AUC, 10 μM)” value is recorded as “B (a value between 12-20 is marked “B”)”. For the same molecule, the “DSLS 3D (100 μM ΔT)” value at NBD1 was “C (a value greater than 10 °C and less than or equal to 25 °C is marked “C”)”.
`CC(Cc1cccc(C2(C)CCCC3(CC3)CS(=O)(=O)CCc3c(c(F)cc4[nH]ccc34)Oc3ccc(F)c(c3)-c3nc2nn3C)c1)C(=O)O` (single isomer, unassigned) [Compound 13A, 3-[3-(22,28-difluoro-3,6-dimethyl-12,12-dioxo-spiro[24-oxa-12lambda6-thia-3,4,19,30-tetrazapentacyclo[23.3.1.12,5.015,23.016,20]triaconta-1(29),2(30),4,15,17,20,22,25,27-nonaene-10,1′-cyclopropane]-6-yl)phenyl]-2-methyl-propanic Acid]: the “TECC (AUC, 10 μM)” value on CFTR was “B (a value between 12-20 is marked “B”)”. Also, the “DSLS 3D (100 μM ΔT)” value at NBD1 was “C (a value greater than 10 °C and less than or equal to 25 °C is marked “C”)”.
`Cn1nc2nc1-c1cc(ccc1F)Oc1c(F)cc3[nH]ccc3c1CCS(=O)(=O)CC(C)(C)OCCC2(C)c1cccc(CC(=O)O)c1` (single isomer, unassigned) [Compound 5A, 2-[3-(22,28-Difluoro-3,6,10,10-tetramethyl-12,12-dioxo-9,24-dioxa-12λ^6-thia-3,4,19,30-tetrazapentacyclo[23.3.1.12,5.015,23.016,20]triaconta-1(29),2(30),4,15,17,20,22,25,27-nonaen-6-yl)phenyl]acetic Acid]: the “TECC (AUC, 10 μM)” value at CFTR was “B (a value between 12-20 is marked “B”)”. Also, the “DSLS 3D (100 μM ΔT)” value at NBD1 is “C (a value greater than 10 °C and less than or equal to 25 °C is marked “C”)”.
For `CC1(C)CCCC(c2cccc(CCC(=O)O)c2)n2ncc(Cl)c2-c2cc(ccc2F)Oc2c(F)cc3[nH]ccc3c2CCS(=O)(=O)C1` (stereo not drawn) [Compound 71, 3-[3-(3-Chloro-23,29-difluoro-11,11-dimethyl-13,13-dioxo-25-oxa-13λ6-thia-5,6,20-triazapentacyclo[24.3.1.02,6.016,24.017,21]triaconta-1(30),2,4,16,18,21,23,26,28-nonaen-7-yl)phenyl]propanoic Acid], at CFTR, the “TECC (AUC, 10 μM)” value was “A (a TECC value less than 12 is marked “A”)”. Besides, the “DSLS 3D (100 μM ΔT)” value on NBD1 is “C (a value greater than 10 °C and less than or equal to 25 °C is marked “C”)”.
Consider `[2H]C([2H])([2H])n1nc2nc1-c1cc(ccc1F)Oc1c(F)cc3[nH]ccc3c1CCS(=O)(=O)CC(C)(C)CCCC2(C)c1cccc(OCC(=O)O)c1` (single isomer, unassigned) [Compound 1B, 2-[3-[22,28-Difluoro-6,10,10-trimethyl-12,12-dioxo-3-(trideuteriomethyl)-24-oxa-12λ^6-thia-3,4,19,30-tetrazapentacyclo[23.3.1.1^2,5.0^15,23.0^16,20]triaconta-1(29),2(30),4,15,17,20,22,25,27-nonaen-6-yl]phenoxy]acetic Acid], for which, on CFTR, the “TECC (AUC, 10 μM)” value is “A (a TECC value less than 12 is marked “A”)”. Also, the “DSLS 3D (100 μM ΔT)” value on NBD1 was “A (an ΔTagg value less than or equal to 5 °C is marked “A”)”.
For the molecule `C[C@@H](Cc1cccc([C@@]2(C)CCCC(C)(C)CS(=O)(=O)CCc3c(c(F)cc4[nH]ccc34)Sc3cccc(c3)-c3nc2co3)c1)C(=O)O` [Compound 293, (2S)-3-[3-[(6R)-22-fluoro-6,10,10-trimethyl-12,12-dioxo-3-oxa-12λ6,24-dithia-19,30-diazapentacyclo[23.3.1.12,5.015,23.016,20]triaconta-1(29),2(30),4,15,17,20,22,25,27-nonaen-6-yl]phenyl]-2-methyl-propanoic Acid], at CFTR, the “TECC (AUC, 10 μM)” value is “B (a value between 12-20 is marked “B”)”. The “DSLS 3D (100 μM ΔT)” value at NBD1 was “C (a value greater than 10 °C and less than or equal to 25 °C is marked “C”)”.
For `C[C@@H](Cc1cccc(C2(C)CCCC(C)(C)CS(=O)(=O)CCc3c(c(F)cc4[nH]ccc34)[S+]([O-])c3ccc(F)c(c3)-c3nc2nn3C)n1)C(=O)O` (single isomer, unassigned) [Compound 179C], at CFTR, the “TECC (AUC, 10 μM)” value is “C (a value between 20 and 80 is marked “C”)”. For the same molecule, the “DSLS 3D (100 μM ΔT)” value on NBD1 was “C (a value greater than 10 °C and less than or equal to 25 °C is marked “C”)”.
As for `Cn1nc2nc1-c1cc(ccn1)Sc1c(F)c(F)c3[nH]ccc3c1CCS(=O)(=O)CC(C)(C)CCC[C@]2(C)c1cccc(CCC(=O)O)c1` [Compound 276, 3-[3-[(6R)-21,22-difluoro-3,6,10,10-tetramethyl-12,12-dioxo-12λ6,24-dithia-3,4,19,28,30-pentazapentacyclo[23.3.1.12,5.015,23.016,20]triaconta-1(29),2(30),4,15,17,20,22,25,27-nonaen-6-yl]phenyl]propanoic Acid], the “TECC (AUC, 10 μM)” value on CFTR was “B (a value between 12-20 is marked “B”)”. Also, the “DSLS 3D (100 μM ΔT)” value on NBD1 is “C (a value greater than 10 °C and less than or equal to 25 °C is marked “C”)”.
For the molecule `CC(Cc1cccc(C2(C)CCCC(C)(C)CS(=O)(=O)CCc3c(c(F)cc4[nH]ccc34)Cn3cc(ccc3=O)-c3nc2nn3C)c1)C(=O)O` (single isomer, unassigned) [Compound 132A, 3-[3-(22-fluoro-3,6,10,10-tetramethyl-12,12,26-trioxo-12λ6-thia-3,4,19,25,30-pentazapentacyclo-[23.3.1.12,5.015,23.016,20]triaconta-1(29),2(30),4,15,17,20,22,27-octaen-6-yl)phenyl]-2-methyl-propanoic Acid], the “TECC (AUC, 10 μM)” value at CFTR is recorded as “A (a TECC value less than 12 is marked “A”)”. Moreover, at NBD1, the “DSLS 3D (100 μM ΔT)” value was “A (an ΔTagg value less than or equal to 5 °C is marked “A”)”.
